Measured values as given in publication PMC5114172 (Journal of applied toxicology : JAT, 2016).

Test system: Granulocytes
Test: Cell viability, trypan blue exclusion
Format: cell-based, human
Conditions: for Percent Viable Cells: Granulocytes

CCC[CH2][Sn][CH2]CCC [DBT, Dibutyltin]
Percent Viable Cells (24 h, 0.05 μM DBT): 90±8%
Percent Viable Cells (24 h, 0.1 μM DBT): 92±5%
Percent Viable Cells (24 h, 0.25 μM DBT): 95±3%
Percent Viable Cells (24 h, 0.5 μM DBT): 94±3%
Percent Viable Cells (24 h, 1 μM DBT): 94±2%
Percent Viable Cells (24 h, 2.5 μM DBT): 92±3%
Percent Viable Cells (24 h, 5 μM DBT): 92±2%
Percent Viable Cells (48 h, 0.05 μM DBT): 93±4%
Percent Viable Cells (48 h, 0.1 μM DBT): 95±3%
Percent Viable Cells (48 h, 0.25 μM DBT): 92±5%
Percent Viable Cells (48 h, 0.5 μM DBT): 94±3%
Percent Viable Cells (48 h, 1 μM DBT): 95±2%
Percent Viable Cells (48 h, 2.5 μM DBT): 72±10 %
Percent Viable Cells (48 h, 5 μM DBT): 73±17%
Percent Viable Cells (6 day, 0.05 μM DBT): 51±18%
Percent Viable Cells (6 day, 0.1 μM DBT): 65±22%
Percent Viable Cells (6 day, 0.25 μM DBT): 55±33%
Percent Viable Cells (6 day, 0.5 μM DBT): 50±5%
Percent Viable Cells (6 day, 1 μM DBT): 57±9%
Percent Viable Cells (6 day, 2.5 μM DBT): 34±8 %
Percent Viable Cells (6 day, 5 μM DBT): 35±20%
effect on viability (granulocytes alone, 24 h, any of the DBT exposures): not affected
